Laboratory results taken from ChEMBL document CHEMBL5230129, “Antibacterial activities with the structure-activity relationship of coumarin derivatives” (2020).
In brackets after ≈: the same amount, converted by molar mass.

What was measured:
Type in all cases: functional
Escherichia coli [1] = assay: Antibacterial activity against Escherichia coli NCIM 2256 assessed as inhibition of bacterial growth incubated for 24 hrs by serial twofold dilution assay
Pseudomonas fluorescens = assay: Antibacterial activity against Pseudomonas fluorescens NCIM 2173 assessed as inhibition of bacterial growth incubated for 24 hrs by serial twofold dilution assay
[2] = test system: Sphingomonas paucimobilis; assay: Antibacterial activity against Flavobacterium devorans ATCC 10829 assessed as inhibition of bacterial growth incubated for 24 hrs by serial twofold dilution assay
Escherichia coli [3] = assay: Antibacterial activity against Escherichia coli MTCC 40 assessed as zone of inhibition incubated for 24 hrs by well-plate method
Bacillus subtilis [4] = assay: Antibacterial activity against Bacillus subtilis assessed as inhibition of bacterial growth relative to control
Escherichia coli [5] = assay: Antibacterial activity against Escherichia coli assessed as inhibition of bacterial growth relative to control
Staphylococcus aureus [6] = assay: Antibacterial activity against Staphylococcus aureus assessed as zone of inhibition incubated for 3 days by cup plate agar diffusion assay; details: time 3 day
Bacillus subtilis [7] = assay: Antibacterial activity against Bacillus subtilis assessed as zone of inhibition incubated for 3 days by cup plate agar diffusion assay; details: time 3 day
Escherichia coli [8] = assay: Antibacterial activity against Escherichia coli assessed as zone of inhibition incubated for 3 days by cup plate agar diffusion assay; details: time 3 day
Pseudomonas aeruginosa [9] = assay: Antibacterial activity against Pseudomonas aeruginosa assessed as zone of inhibition incubated for 3 days by cup plate agar diffusion assay; details: time 3 day
Escherichia coli [10] = assay: Antibacterial activity against Escherichia coli 1411 assessed as inhibition of bacterial growth incubated for 24 hrs by two-fold serial dilution method
Escherichia coli [11] = assay: Antibacterial activity against Escherichia coli SM1411 assessed as inhibition of bacterial growth incubated for 24 hrs by two-fold serial dilution method
Klebsiella pneumoniae = assay: Antibacterial activity against Klebsiella pneumoniae assessed as zone of inhibition incubated for 24 hrs by disk diffusion assay
Escherichia coli [12] = assay: Antibacterial activity against Escherichia coli ATCC 25922 assessed as zone of inhibition incubated for 24 hrs by paper disk method
Pseudomonas aeruginosa [13] = assay: Antibacterial activity against Pseudomonas aeruginosa ATCC 27853 assessed as zone of inhibition incubated for 24 hrs by paper disk method
Enterococcus faecalis = assay: Antibacterial activity against Enterococcus faecalis PCM 2673 assessed as inhibition of bacterial growth incubated for 24 hrs by microbroth dilution assay
Escherichia coli [14] = assay: Antibacterial activity against Escherichia coli ATCC 8739 assessed as inhibition of bacterial growth incubated for 24 hrs by microbroth dilution assay
Staphylococcus aureus [15] = assay: Antibacterial activity against Staphylococcus aureus assessed as inhibition of bacterial growth by broth dilution assay
Bacillus subtilis [16] = assay: Antibacterial activity against Bacillus subtilis assessed as inhibition of bacterial growth by broth dilution assay
Pseudomonas = assay: Antibacterial activity against Pseudomonas assessed as zone of inhibition
Staphylococcus aureus [17] = assay: Antibacterial activity against Staphylococcus aureus assessed as inhibition of bacterial growth by broth micro dilution assay
Bacillus = assay: Antibacterial activity against Bacillus assessed as inhibition of bacterial growth by broth micro dilution assay
Escherichia coli [18] = assay: Antibacterial activity against Escherichia coli assessed as inhibition of bacterial growth by broth micro dilution assay

`Cc1cc(OCc2cn(Cc3ccc([N+](=O)[O-])cc3)nn2)cc2oc(=O)ccc12` gave an MIC (Escherichia coli [1]) of 2 µg/mL (≈ 5.1 µM), an MIC (Pseudomonas fluorescens) of 2 µg/mL (≈ 5.1 µM) and an MIC [2] of 16 µg/mL (≈ 40.8 µM).

`O=c1oc2ccccc2cc1-c1nn(-c2ccccc2)cc1/C=N/Nc1nc(-c2ccccc2)cs1` was tested, and the “inhibition zone (IZ)” value (Escherichia coli [3]) was 19 mm.

For `COC(=O)c1nnn(CC(=O)c2cc3cc(Cl)ccc3oc2=O)c1C(=O)OC`, the “inhibition (INH)” value (Bacillus subtilis [4]) was 83.3% and the “inhibition (INH)” value (Escherichia coli [5]) was 83.3%.

For `COC(=O)c1nnn(CC(=O)c2cc3c(ccc4ccccc43)oc2=O)c1C(=O)OC`, the “inhibition (INH)” value (Bacillus subtilis [4]) was 83.3% and the “inhibition (INH)” value (Escherichia coli [5]) was 83.3%.

In the case of `COc1ccc(/C=C/C(=O)c2c(OCc3cnnn3Cc3ccccc3)ccc3c(C)cc(=O)oc23)cc1`, the “inhibition zone (IZ)” value (Staphylococcus aureus [6]) is reported as 28 mm, the “inhibition zone (IZ)” value (Bacillus subtilis [7]) is reported as 11 mm and the “inhibition zone (IZ)” value (Escherichia coli [8]) is reported as 28 mm. For the same compound, the “inhibition zone (IZ)” value (Pseudomonas aeruginosa [9]) was 9 mm.

With `Cc1cc(=O)oc2c(C(=O)/C=C/c3ccc(Cl)cc3)c(OCc3cnnn3Cc3ccccc3)ccc12` the “inhibition zone (IZ)” value (Staphylococcus aureus [6]) was 25 mm, the “inhibition zone (IZ)” value (Bacillus subtilis [7]) was 10 mm and the “inhibition zone (IZ)” value (Escherichia coli [8]) was 23 mm. The “inhibition zone (IZ)” value (Pseudomonas aeruginosa [9]) was 8 mm.

In the case of `N[C@@H]1CONC1=O` [CYCLOSERINE], the MIC (Escherichia coli [10]) is reported as 16 µg/mL (≈ 157 µM) and the MIC (Escherichia coli [11]) is reported as 16 µg/mL (≈ 157 µM).

`Cc1cc(=O)oc2cc(OCc3nnc(Nc4ccc(Br)cc4)s3)ccc12` was tested, and the “inhibition zone (IZ)” value (Klebsiella pneumoniae) was 16 mm.

For `C[C@@H](NC(=O)COc1cc(=O)oc2ccccc12)c1ccccc1`, the “inhibition zone (IZ)” value (Escherichia coli [12]) was 12 mm and the “inhibition zone (IZ)” value (Pseudomonas aeruginosa [13]) was 10 mm.

`O=c1cc(OCc2cn(-c3ccccc3)nn2)c2ccccc2o1` showed an MIC (Enterococcus faecalis) of 50 µg/mL (≈ 157 µM) and an MIC (Escherichia coli [14]) of 1600 µg/mL (≈ 5010 µM).

Work on `Cc1cc(OCc2cn(Cc3ccc(Br)cc3)nn2)cc2oc(=O)ccc12` yielded an MIC (Escherichia coli [1]) of 4 µg/mL (≈ 9.38 µM), an MIC (Pseudomonas fluorescens) of 4 µg/mL (≈ 9.38 µM) and an MIC [2] of 2 µg/mL (≈ 4.69 µM).

In the case of `CC1(C)S[C@@H]2[C@H](NC(=O)[C@H](N)c3ccc(O)cc3)C(=O)N2[C@H]1C(=O)O` [AMOXICILLIN], the “inhibition zone (IZ)” value (Staphylococcus aureus [6]) is reported as 30 mm, the “inhibition zone (IZ)” value (Bacillus subtilis [7]) is reported as 12 mm and the “inhibition zone (IZ)” value (Escherichia coli [8]) is reported as 30 mm. For the same compound, the “inhibition zone (IZ)” value (Pseudomonas aeruginosa [9]) was 10 mm.

Work on `O=c1oc2ccc(Br)cc2cc1-c1cc2c(ccc3ccccc32)o1` yielded an MIC (Staphylococcus aureus [15]) of 0.2 µg/mL (≈ 0.511 µM) and an MIC (Bacillus subtilis [16]) of 6.25 µg/mL (≈ 16 µM).

GENTAMICIN gave an inhibition zone (IZ) (Klebsiella pneumoniae) of 16 mm.

Work on `Cc1ccc2cc(-c3cc4ccccc4oc3=O)oc2c1` yielded an MIC (Staphylococcus aureus [15]) of 0.2 µg/mL (≈ 0.724 µM) and an MIC (Bacillus subtilis [16]) of 0.2 µg/mL (≈ 0.724 µM).

With `O=c1oc2ccccc2cc1C1=NNC(c2ccc(-c3ccccc3)c(-c3ccccc3)c2)C1` (configuration not stated) the MIC (Escherichia coli [10]) was over 70 µg/mL and the MIC (Escherichia coli [11]) was over 70 µg/mL.

`Cc1ccc2cc(-c3cc4cc(Br)ccc4oc3=O)oc2c1` was tested, and the MIC (Staphylococcus aureus [15]) was 3.12 µg/mL (≈ 8.78 µM) and the MIC (Bacillus subtilis [16]) was 0.2 µg/mL (≈ 0.563 µM).

`O=c1cc(-c2nc3ccccc3[nH]2)c2cc(Cl)ccc2o1` was tested, and the inhibition zone (IZ) (Pseudomonas) was 8 mm.

In the case of `O=c1oc2ccc(Br)cc2cc1-c1cc2ccc3ccccc3c2o1`, the MIC (Staphylococcus aureus [15]) is reported as 0.2 µg/mL (≈ 0.511 µM) and the MIC (Bacillus subtilis [16]) is reported as 0.8 µg/mL (≈ 2.04 µM).

For `COc1ccc(/C=C/C(=O)c2c(OCc3cnnn3Cc3ccccc3)ccc3c(C)cc(=O)oc23)cc1OC`, the “inhibition zone (IZ)” value (Staphylococcus aureus [6]) was 32 mm, the “inhibition zone (IZ)” value (Bacillus subtilis [7]) was 13 mm and the “inhibition zone (IZ)” value (Escherichia coli [8]) was 31 mm. The “inhibition zone (IZ)” value (Pseudomonas aeruginosa [9]) was 11 mm.

In the case of `COC(=O)c1nnn(CC(=O)c2cc3cc(Br)ccc3oc2=O)c1C(=O)OC`, the “inhibition (INH)” value (Bacillus subtilis [4]) is reported as 82.2% and the “inhibition (INH)” value (Escherichia coli [5]) is reported as 88.8%.

For `Cc1cc(=O)oc2cc(OCc3nnc(Nc4ccc(Cl)cc4)s3)ccc12`, the “inhibition zone (IZ)” value (Klebsiella pneumoniae) was 15 mm.

In the case of `O=c1cc(-c2nc3ccccc3[nH]2)c2ccc3ccccc3c2o1`, the inhibition zone (IZ) (Pseudomonas) is reported as 4.2 mm.

`Cc1ccc2oc(=O)cc(C3NNC(=O)N3)c2c1` (configuration not stated) was tested, and the MIC (Staphylococcus aureus [17]) was 1.6 µg/mL (≈ 6.52 µM), the MIC (Bacillus) was 0.8 µg/mL (≈ 3.26 µM) and the MIC (Escherichia coli [18]) was 0.8 µg/mL (≈ 3.26 µM).

With `Cc1ccc2c(C3NNC(=O)N3)cc(=O)oc2c1` (configuration not stated) the MIC (Staphylococcus aureus [17]) was 1.6 µg/mL (≈ 6.52 µM), the MIC (Bacillus) was 1.6 µg/mL (≈ 6.52 µM) and the MIC (Escherichia coli [18]) was 1.6 µg/mL (≈ 6.52 µM).

In the case of `O=c1oc2ccccc2cc1C1=NNC(c2ccc(F)cc2)C1` (configuration not stated), the MIC (Escherichia coli [10]) is reported as over 70 µg/mL and the MIC (Escherichia coli [11]) is reported as over 70 µg/mL.

Compound `Cc1ccc2oc(-c3cc4ccccc4oc3=O)cc2c1` has an MIC (Staphylococcus aureus [15]) of 0.2 µg/mL (≈ 0.724 µM) and an MIC (Bacillus subtilis [16]) of 0.4 µg/mL (≈ 1.45 µM).

Compound `Cc1cc(OCc2cn(Cc3ccc(Cl)cc3)nn2)cc2oc(=O)ccc12` has an MIC (Escherichia coli [1]) of 2 µg/mL (≈ 5.24 µM), an MIC (Pseudomonas fluorescens) of 2 µg/mL (≈ 5.24 µM) and an MIC [2] of 2 µg/mL (≈ 5.24 µM).

For `O=c1cc(OCc2cn(-c3ccc(F)cc3)nn2)c2ccccc2o1`, the MIC (Enterococcus faecalis) was 400 µg/mL (≈ 1190 µM) and the MIC (Escherichia coli [14]) was 1600 µg/mL (≈ 4740 µM).

In the case of `COc1cc(C2CC(c3cc4ccccc4oc3=O)=NN2)ccc1O` (configuration not stated), the MIC (Escherichia coli [10]) is reported as 14 µg/mL (≈ 41.6 µM) and the MIC (Escherichia coli [11]) is reported as 14 µg/mL (≈ 41.6 µM).
